Experimental data reported in PubChem BioAssay AID2423 (Broad Institute, 2010).
pEC50: −log10 of the molar value. Results filed as inconclusive are left out. Calls of active or inactive are those of the source. How the calls were made is not given here.

Tested on: C. albicans CaCi-8 + fluconazole, Alamar Blue growth, 48 h
Assay: resistant C. albicans growth inhibition with fluconazole, dose response, CaCi-8 strain, Alamar Blue fluorescence (AID 2423)

Compound | pEC50 | EC50
CCCCC(=O)NC(c1ccc(Cl)cc1)c1ccc2cccnc2c1O (configuration not stated) | 6.30 | –
Cc1ccc(Cn2nnc3c(=O)[nH]c(C4CCN(S(=O)(=O)c5ccc(C)cc5)CC4)nc32)cc1 | – | > 15000 nM (inactive)
O=C(CN1CCN(S(=O)(=O)c2ccccc2)CC1)Nc1ccc2c(c1)CCC2 | 4.98 | –
Cc1cccc(NC(=S)N/N=C(\c2ccccc2)C(C)C)c1 | 5.51 | –
O=C(NC(=S)NNC(=O)[C@H]1C[C@@H]1c1ccccc1)c1cccc(F)c1 | 5.59 | –
CN(C)C(=O)c1cn(-c2ccccc2)nc1-c1cccs1 | – | > 16000 nM (inactive)
Cc1ccc(/C=C/C(=O)c2ccccc(=O)c2O)cc1C | 5.57 | –
Cc1nnc(NC(=O)c2c(-c3ccccc3Cl)noc2C)s1 | 5.51 | –
CCN1CCN(C(c2cccnc2)c2cc(Cl)c3cccnc3c2O)CC1 (configuration not stated) | 6.01 | –
O=C(N/N=C/c1sc2ccccc2c1O)c1cccc2ccccc12 | 5.80 | –
COc1ccc(C(=O)N2c3ccccc3C=CC2C#N)cc1 (configuration not stated) | 5.76 | –
O=C(N/N=C/c1c(O)n(CCC2=CCCCC2)c(=S)[nH]c1=O)c1ccccc1 | 4.97 | –
CNCc1ccccc1Sc1ccc(O)c(O)c1 | 5.16 | –
COC(=O)/C(=N\Nc1ccc(Cl)cc1)Sc1nnc(-c2ccc(OC)cc2)n1C | – | > 16000 nM (inactive)
Cc1noc(/C=C/c2ccccn2)c1[N+](=O)[O-] | 5.72 | –
COc1cccc(-n2nnnc2S(C)(=O)=O)c1 | – | > 15000 nM (inactive)
Cc1ccc(Nc2nc(N)c([N+](=O)[O-])c(N3CCC(C)CC3)n2)cc1C | 5.44 | –
O=C(c1cc2ccccc2cc1O)N1CCN(c2ccccc2O)CC1 | 6.68 | –
Cc1onc(-c2c(Cl)cccc2Cl)c1C(=O)N/N=C(\N)COc1ccc(Cl)cc1 | 5.77 | –
COC(CN(C)C(=O)c1ccc2c(c1)NC(=O)c1ccccc1S2)OC | – | > 15000 nM (inactive)
O=C(Cc1ccc(O)cc1)N/N=C/c1cccnc1 | – | > 16000 nM (inactive)
COc1ccc(-c2n(CC(=O)OC3CC(C)CCC3C(C)C)c3ccccc3[n+]2C)cc1 (configuration not stated) | 6.44 | –

Compound | pEC50 | EC50
Nc1[nH]n2c(=O)cc(-c3ccccc3)nc2c1N=Nc1ccc(S(N)(=O)=O)cc1 | 5.51 | –
NC(=O)c1c(NC(=O)c2ccccc2F)sc2c1CCCC2 | 5.70 | –
Cc1nnc(NC(=O)c2ccc(S(=O)(=O)N(C)Cc3ccccc3)cc2)o1 | 6.09 | –
CCn1c(SCC(=O)c2ccc(O)c(O)c2)nnc1-c1ccccc1OC | – | > 16000 nM (inactive)
CN(C)c1ccc(NC(=O)C2C3C=CC(C3)C2C(=O)O)cc1 (configuration not stated) | – | > 16000 nM (inactive)
O=S(=O)(Nc1nc(-c2ccccc2)cs1)c1cc(Cl)ccc1Cl | 5.55 | –
Cc1cccc(NC(=O)NNC(=O)c2cc3ccccc3cc2O)c1C | – | > 15000 nM (inactive)
Cc1ccc(C)c(S(=O)(=O)N2CCN(Cc3ccc(O)c4ncccc34)CC2)c1 | 5.67 | –
COc1ccc(OC)c(-n2c(CN3CCC(C(N)=O)CC3)nc3ccccc3c2=O)c1 | – | > 15000 nM (inactive)
Cc1ccc(C(=O)NC(=S)NNC(=O)CC#N)cc1 | – | > 15000 nM (inactive)
Cc1ccc(S(=O)(=O)CC(C)N2CCOCC2)c(S(=O)(=O)CC(C)N2CCOCC2)c1 (configuration not stated) | – | > 16000 nM (inactive)
c1ccc(-c2cccc(-c3ccccn3)n2)nc1 | 6.28 | –
CCc1ccc2c(c1)/C(=C/C(=O)c1cccs1)C(=O)N2 | 5.62 | –
CCn1c(Sc2nc(C)nc3scc(-c4cccs4)c23)n[nH]c1=O | 6.15 | –
Cc1cc(NC(=O)c2cccc(Oc3ccccc3)c2)n[nH]1 | 5.80 | –
CCOC(=O)c1c(-c2ccccc2)oc2ccc(OCC(O)CN(C)C)cc12 (configuration not stated) | 5.89 | –
COc1ccc(/C=N\NC(=O)c2cc(O)c(O)c(O)c2)cc1CN1CCN(c2ccc(F)cc2)CC1 | 5.80 | –
O=C(Nc1ccccc1N1CCOCC1)c1ccc(S(=O)(=O)NCc2ccco2)cc1 | – | > 15000 nM (inactive)
O=C(CCCCCN1C(=O)c2cccc3cccc(c23)C1=O)N1CCOCC1 | – | > 15000 nM (inactive)
COc1ccc(C(=O)NNC(=S)NC(=O)c2ccccc2)cc1 | 5.58 | –
CCOc1ccc(NC(=S)NNC(=O)c2ccc(Br)cc2)cc1 | 5.81 | –
COc1cc(NS(=O)(=O)c2ccc3ccccc3c2)c2ncccc2c1 | 5.59 | –

Compound | pEC50 | EC50
O=C(Oc1c(CN2CCOCC2)cc(Cl)c2cccnc12)c1ccccc1Br | 5.38 | –
O=C(CSCc1ccc(Cl)cc1)Nc1cc([N+](=O)[O-])ccc1O | – | > 15000 nM (inactive)
Cc1ccc2nc(-c3ccccc3Cl)cc(C(=O)Nc3cc(C)on3)c2c1 | 6.30 | –
Cc1n[nH]c(C)c1CCNCc1ccc(OCC(O)CN2CCCCC2)cc1 (configuration not stated) | – | > 15000 nM (inactive)
O=C(NCc1ccc(F)cc1)c1ccc(CS(=O)(=O)Cc2ccccc2F)o1 | – | > 15000 nM (inactive)
CC(C)(C)c1ccc(OCc2ccc(C(=O)N/N=C/c3ccc(O)c(O)c3)cc2)cc1 | 5.51 | –
COc1ccc(OC)c(NC(=O)C(=O)/C=C(\O)c2cc(OC)ccc2OC)c1 | – | > 15000 nM (inactive)
O=C(/C=C1\NC2(CCCC2)Cc2ccccc21)C(=O)N/N=C/c1ccccc1O | 6.22 | –
C[n+]1c(-c2ccccc2)c2cc(N)ccc2c2ccc(N)cc21 | – | > 16000 nM (inactive)
CC1(C)C(O)=C(c2nc3ccccc3[nH]2)C(=N)N1c1ccccc1 | 5.01 | –
CCOC(=O)N1CCN(Cc2cc(Cl)c3cccnc3c2O)CC1 | 5.72 | –
COc1cc2c(cc1O)CC[n+]1cc3c(OC)c(OC)ccc3cc1-2 | – | > 16000 nM (inactive)
COc1ccc(C(=O)On2c(-c3ccc(Br)cc3)nc3ccccc3c2=O)cc1 | 5.96 | –
COc1cccc(C(=O)Nc2nnc(-c3ccc(F)cc3)o2)c1 | 5.77 | –
CCN1/C(=C/c2ccc3cccc(C)c3[n+]2CC)Sc2ccccc21 | > 6.92 | –
CCCCNC(=O)c1cn(C)c2ccc(S(=O)(=O)N3CCCC3)cc2c1=O | – | > 15000 nM (inactive)
CS(=O)(=O)NN1C(=O)c2ccccc2NC1c1cccc2cccnc12 (configuration not stated) | 5.67 | –
O=C(NCCNC(=O)C(c1ccccc1)c1ccccc1)c1ccco1 | – | > 15000 nM (inactive)
O=c1c2ccccc2nc(-c2ccc(Cl)cc2Cl)n1O | 5.99 | –
O=C(CN1C(=O)S/C(=C\c2ccccn2)C1=O)Nc1ccccc1 | – | > 15000 nM (inactive)
CCOc1ccc(C(Nc2cccnc2)c2cc(Cl)c3cccnc3c2O)cc1 (configuration not stated) | 6.03 | –
COc1ccc(-[n+]2c(-c3ccccc3)cc(-c3ccccc3)cc2-c2ccccc2)cc1 | – | > 15000 nM (inactive)

Compound | pEC50 | EC50
O=c1nc(/C=C/c2cc([N+](=O)[O-])ccc2Cl)cc(C(F)(F)F)[nH]1 | 6.02 | –
O=C(COc1ccc2c(c1)CCC2)N1CCN(c2cccc(C(F)(F)F)c2)CC1 | – | > 16000 nM (inactive)
C/C(=N\NC(=O)c1cc(-c2cccnc2)nc2ccccc12)c1ccc(O)cc1O | 5.84 | –
O=S(=O)(c1ccc(Cl)cc1)N1CCN(Cc2ccc(O)c3ncccc23)CC1 | 5.53 | –
CCCn1c(N)c(C(=O)COC(=O)c2c(C)noc2C)c(=O)n(C)c1=O | – | > 15000 nM (inactive)
COc1ccc(NC(=O)NC(C)c2ccccc2)cc1 (configuration not stated) | – | > 16000 nM (inactive)
Oc1c(Cl)cc(Cl)c(Cl)c1Cc1c(O)c(Cl)cc(Cl)c1Cl | 5.76 | –
CCCC(=O)NC(c1ccccc1)c1ccc2cccnc2c1O (configuration not stated) | 6.11 | –
C=CCn1c(O)c(N=NC(=S)Nc2ccccc2C)c2cc(S(=O)(=O)N3CCOCC3)ccc21 | 5.93 | –
C(=C\c1ccccc1)/C=N/Nc1nc(N2CCCCC2)nc(N2CCCCC2)n1 | – | > 15000 nM (inactive)
CCCCn1c(CN2CCN(C(=O)OCC)CC2)nc2c1c(=O)n(C)c(=O)n2C | – | > 15000 nM (inactive)
CCN(CC)c1ccc(/C=N/Nc2nc3ccccc3[nH]2)cc1 | 6.06 | –
O=C(Nc1nnc(-c2ccco2)o1)c1ccc(Cl)cc1 | 5.94 | –
C[C@@H]1CC[C@@]2(NC1)O[C@H]1C[C@H]3[C@@H]4CC=C5C[C@@H](O)CC[C@]5(C)[C@H]4CC[C@]3(C)[C@H]1[C@@H]2C | 6.88 | –
O=C(Cn1c2ccc(F)cc2c2nc3n(c(=O)c21)CCS3)N1CCCC1 | – | > 16000 nM (inactive)
O=C(NNC1=C(C(=O)C(F)(F)F)CCC1)c1ccc(Cl)cc1 | 5.98 | –
CCCn1c(Nc2nc3ccccc3n2C)nc2ccccc21 | 5.93 | –
O=c1c2ccc(Cl)cc2nc(-c2cccc(C(F)(F)F)c2)n1O | 6.08 | –
O=C(Nc1ccc(NC(=O)c2cccs2)cc1)c1ccc(Br)o1 | 5.00 | –
CCN(CC)c1ccc(/C=N/NC(=O)c2nnn(-c3nonc3N)c2C(C)C)c(O)c1 | 6.33 | –
O=c1c2ccccc2nc(/C=C/c2ccc([N+](=O)[O-])o2)n1-c1ccc(O)cc1 | > 6.92 | –
O=C(CCS(=O)(=O)c1ccc(F)cc1)Nc1nc(-c2ccncc2)cs1 | 5.83 | –

Compound | pEC50 | EC50
Cc1ccc(-c2nc(-c3cccnc3)no2)c(C)c1 | 4.98 | –
CCc1ccc(OCC(=O)NNC(=S)NC(=O)C2CC2)c(Br)c1 | 5.92 | –
CCOC(=O)c1ccc(-c2ccc(C3Nc4ccccc4C(=O)N3O)o2)cc1 (configuration not stated) | 5.25 | –
CCN(CC)c1ccc(/C=C/C(=O)c2cccnc2)cc1 | > 6.92 | –
CCCNC(=O)c1ccc2c(=O)c(O)c(-c3ccc(Cl)c([N+](=O)[O-])c3)[nH]c2c1 | 5.72 | –
CCOc1ccc2c(c1)C(C)=CC(C)(C)N2S(=O)(=O)c1ccc(C)cc1 | – | > 16000 nM (inactive)
COc1ccc(C(=O)NC(=S)NNC(=O)c2ccccc2C)cc1 | 5.70 | –
COCCNC(=O)C(c1ccc(C)o1)N(CCOC)C(=O)Cn1nnc2ccccc21 (configuration not stated) | – | > 15000 nM (inactive)
Cc1cc(C(=O)NNC(=S)NC(C)c2ccccc2)c2ccccc2n1 (configuration not stated) | 5.51 | –
CCn1nnnc1NC(=O)c1cc(Cl)c(OC)c(Cl)c1 | 5.26 | –
COCCN1C(=O)C(O)=C(C(=O)c2ccco2)C1c1cccc(Oc2ccccc2)c1 (configuration not stated) | 5.42 | –
CCCCC(=O)NC(c1ccc(Cl)cc1Cl)c1ccc2cccnc2c1O (configuration not stated) | 6.39 | –
Cc1ccc(Nc2nc(Cl)nc(NC(C)(C)C)n2)cc1 | 5.58 | –
COc1cccc2sc(=NC(=O)CS(=O)(=O)c3ccc(Cl)cc3)n(C)c12 | 5.19 | –
COc1ccc(-c2nnc(NC(=O)c3ccc(S(=O)(=O)N4CCCc5ccccc54)cc3)o2)cc1 | 6.71 | –
O=C(CCN1CCN(c2ccccc2)CC1)N/N=C/c1ccc(O)c(O)c1O | 5.40 | –
CCN(CC)c1ccc(/C=N/NC(=O)c2ccco2)c(O)c1 | 5.62 | –
CN(C(=O)CSc1nnc(-c2ccco2)o1)C1CCCCC1 | 4.88 | –
Cc1ccc(C)c(NC(=S)NNC(=O)c2csc3c2CCC(C)C3)c1 (configuration not stated) | 5.94 | –
